The subject of the test is Nitric oxide synthase 1 (Bos taurus). The test can be described thus: Inactivation constant for Neuronal nitric oxide synthase (nNOS) from bovine brain.

As for `C#CCNC(=N)N`, the K inact was determined as 0.39 min⁻¹.

The values above are taken from ChEMBL document CHEMBL1130299, “Time-dependent inhibition of neuronal nitric oxide synthase by N-propargylguanidine” (Bioorg Med Chem Lett, 1997).
